Like-named read-outs stand apart in the source and are kept apart here.
Experiments:
[1] = ester vs parent acid (CA or UA); cited from earlier work
[2] = system: A549 human lung cancer cells; assay: Trypan Blue cell viability/growth assay, A549 cells; format: cell-based; conditions: for Potentiation of anti-cancer activity by esterization: ester vs original acid; for fold more potent than original acid, growth of A549 cells: ester vs original acid (ARC, CA or Ketorolac)
Protocol: (§1) A. Cell Lines: Human lung cancer (A549) cells carrying an oncogenic K-RAS mutant or murine melanoma (B16F10) cells
(§2) B. Cell seeding in 96 well plate: In culture medium D-MEM with or without 10% fetal bovine serum.
(§3) C. Inhibitor Stocks in DMSO (100 mM)
(§4) D. Trypan Blue Assay for Cell Viability/Growth (4): The most commonly used MTT assay for cell viability/growth is not feasible for cells treated with triazolyl derivatives, mainly because these compounds are reduced by mitochondrial reductase in viable cells, just like MTT, and converted to a purple compound which would clearly interfere with the colorimetry on which MTT assay depends. Thus, a more classic method called Trypan Blue exclusion assay should be used for determining cell viability/growth of cells treated with all triazolyl derivatives. In this assay, only dead cells are stained with Trypan Blue, while viable cells exclude this blue dye.
(§5) The assay was conducted as previously described. Briefly, A549 or B16F10 cells were seeded at 2×10^4 cells/well in 96 well plate for 24 hrs in the above medium, and then treated with one of the tested compounds in the same medium for 96 hrs. Cell were detached from the plate by a protease called accutase, and stained with Trypan blue, and the number of unstained (viable) cells was counted in a hemocytometer.

PAK1 = target: T1, PAK1 (Homo sapiens, UniProt Q13153); assay: Anti-PAK1 activity in cell culture, Macaroni-Western (IP) ATP-Glo kinase assay; format: cell-based
T1 construct: endogenous in cells; host or cells: A549 human lung cancer cells
Protocol: A. Cell line: Human lung cancer (A549) cells.
B. Cell seeding in 6-well plate with the culture medium (D-MEM).
C. Inhibitor Stocks in DMSO (100 mM).
D. “Macaroni-western” (IP) ATP-Glo kinase assay: The kinase activity of PAK1 in A549 (or B16F100 cells was measured by a method called “Macaroni-Western” (IP) ATP-Glo kinase assay. Briefly, cells (2×10^5 cells/mL) were pre-cultured on 6-well plate for 24 hrs in the medium. Then cells were treated with a test compound in the same medium for additional 24 hrs. Cells were disrupted by lysis buffer containing 50 mM Tris-HCl pH 7.5 and 150 mM NaCl and 1% Triton-X. For the immunoprecipitation (IP) of PAK1, the cleared cell lysates were incubated with anti-PAK1 IgG (1:50 dilution) and protein A-agarose beads for 1-2 hrs in cold room with continuous shaking by a rotary mixer (Nissin, Suginami-ku, Tokyo, Japan). The resultant IP (PAK1) from each lysate was incubated with ATP-Glo kinase assay kit (Promega) in the presence of ATP and MBP (myelin basic protein) for 1 hr at 37° C., and the remaining ATP level was measured by the ATP-dependent Luciferin-Luciferase reaction which eventually generates a luminescence. The final suspension was centrifuged, and the supernatant was transferred to 96-well plate for reading. Luminescence was recorded by MTP-880Lab microplate reader (Corona, Hitachinaka-ku, Ibaraki, Japan) with an integration time of 0.5 s per well.

melanoma (B16F10) cells [3] = assay: Melanin content assay (PAK1-dependent melanogenesis), B16F10 cells; format: cell-based, murine; conditions: alpha-MSH 100 nM stimulated; read-out: IC50 against the PAK1-dependent melanogenesis of melanoma (B16F10) cells
Protocol: A. Cell line: Murine melanoma (B16F10) cells.
B. Cell seeding in 96 well plate: In culture medium D-MEM supplemented with 10% […] FBS (fetal bovine serum) and 1% penicillin/streptomycin (10,000 U/mL and 100 μg/mL). 2×10^4 cells were seeded in each well of 96 well plate in the medium at 37° C. for 24 hrs in a humidified atmosphere containing 5% CO2.
C. Inhibitor Stocks in DMSO (100 uM).
E. Melanin content Assay (4): The assay was performed as previously described. Cells were seeded in a 96-well plate at a density 5×10^4 cells/well in culture medium containing D-MEM supplemented with 10% FBS, 1% penicillin/streptomycin, and cultured for 24 hrs. Then, the cells were treated with a melanogenic stimulating hormone called α-MSH (100 nM), and treated with one of tested compounds for 48 hrs. After the medium was removed, cells were dissolved in 100 μL of 1 N NaOH. The mixture was heated at 90° C. for 1 hr, and the melanin content was estimated by reading the absorbance at 405 nm.

EMT6 breast cancer cells = assay: Cell-permeability (intracellular uptake) assay by HPLC; format: in vitro ADME; conditions: for fold more cell-permeable than original acid: 100 uM, uptake during first 1 hr, lower bound
Protocol: For measuring the uptake of both original acids and their esters into cells, a drug-resistant breast cancer cell line (EMT6) was chosen, as it survives the treatment with either acids or their esters at 100 uM for 24 hrs. The uptake of each compound (100 uM) into 1×10^5 cells mainly during the first 1 hr was quantitated by separation of either original acids or their esters taken by cells through HPLC column chromatography, and the amount of each compound was estimated by photometry at the wavelength 322 nm.

melanoma (B16F10) cells [4] = assay: Trypan Blue cell viability/growth assay, B16F10 cells; format: cell-based, murine
Protocol: as §1, §2, §3, §4, §5

recombinant human COX-2 = target: T2, recombinant human COX-2 (Homo sapiens, UniProt P35354); assay: In vitro anti-COX-2 activity; format: biochemical
T2 sequence (P35354 18-604): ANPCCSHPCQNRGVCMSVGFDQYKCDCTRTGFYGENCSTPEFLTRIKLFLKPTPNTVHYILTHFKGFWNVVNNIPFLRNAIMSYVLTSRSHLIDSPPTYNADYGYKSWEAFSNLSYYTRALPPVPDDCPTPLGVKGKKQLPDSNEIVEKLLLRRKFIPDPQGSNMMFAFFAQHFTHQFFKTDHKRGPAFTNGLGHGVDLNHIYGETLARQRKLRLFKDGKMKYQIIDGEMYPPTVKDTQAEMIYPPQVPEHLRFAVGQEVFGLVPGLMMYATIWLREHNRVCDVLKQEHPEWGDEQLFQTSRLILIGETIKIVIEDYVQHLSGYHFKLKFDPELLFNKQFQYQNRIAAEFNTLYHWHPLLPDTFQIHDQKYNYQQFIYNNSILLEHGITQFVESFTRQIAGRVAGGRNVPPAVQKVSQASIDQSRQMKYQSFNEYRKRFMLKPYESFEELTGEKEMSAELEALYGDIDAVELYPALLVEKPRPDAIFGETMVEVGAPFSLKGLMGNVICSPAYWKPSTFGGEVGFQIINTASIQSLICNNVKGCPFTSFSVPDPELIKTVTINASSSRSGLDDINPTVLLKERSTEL
Protocol: The effect of Ketorolac and PRC-15K (both in racemic form) on COX-2 was assayed in vitro, essentially according to the procedure previously published (5). Briefly, the recombinant human COX-2 was treated with either Ketorolac or PRC-15K at concentrations ranging 5-200 nM for 2 or 5 min (depending on the chemical nature of the test compounds) at room temperature in the presence of arachidonic acid, to measure the remaining COX-2 activity at 590 nm. The COX-2 activity without these test chemicals was used as the negative control for calculating their anti-COX-2 activity.

[5] = system: Human follicle dermal papilla (HFDP) cells; assay: Hair cell growth promoting (anti-alopecia) Trypan Blue assay, HFDP cells; format: cell-based
Protocol: A. Cell line: Human follicle dermal papilla (HFDP) cells.
B. Cell seeding in 96 well plate: In culture medium D-MEM medium containing 50 mL of papilla cell growth medium (PCGM), 0.5 mL of fetal calf serum (FSC), 0.5 mL of BPE, 0.25 mL of Cyp, and 0.25 mL of ITT in 51.5 mL total volume.
C. Inhibitor Stocks in DMSO (100 μM).
D. Trypan Blue assay for cell viability/growth (4): HFDP cells were collected and diluted in medium containing Dulbecco's modified minimum essential medium (D-MEM) and 10% fetal bovine serum (FBS) at cell density of 1×10^4 cell/mL. Then, 200 μL of cell suspension (2,000 cells/well) was transferred into each well of collagen-coated 96 well plate, and cells were incubated for 37° C., under 5% CO2 for 3 days. The medium was removed, and 200 μL of samples prepared in D-MEM only was added. After 4 days incubation, cell were detached from the plate by a protease called accutase, and stained with Trypan blue, and the number of unstained (viable) cells was counted in a hemocytometer.

[6] = Homo sapiens, growth of A459 lung cancer cell line (so in the source), read-out: IC50 of Original Acids
[7] = 96 hrs treatment, Trypan Blue exclusion, read-out: IC50 against the growth of A549 human lung cancer cells

T1 sequence (Q13153 whole entry): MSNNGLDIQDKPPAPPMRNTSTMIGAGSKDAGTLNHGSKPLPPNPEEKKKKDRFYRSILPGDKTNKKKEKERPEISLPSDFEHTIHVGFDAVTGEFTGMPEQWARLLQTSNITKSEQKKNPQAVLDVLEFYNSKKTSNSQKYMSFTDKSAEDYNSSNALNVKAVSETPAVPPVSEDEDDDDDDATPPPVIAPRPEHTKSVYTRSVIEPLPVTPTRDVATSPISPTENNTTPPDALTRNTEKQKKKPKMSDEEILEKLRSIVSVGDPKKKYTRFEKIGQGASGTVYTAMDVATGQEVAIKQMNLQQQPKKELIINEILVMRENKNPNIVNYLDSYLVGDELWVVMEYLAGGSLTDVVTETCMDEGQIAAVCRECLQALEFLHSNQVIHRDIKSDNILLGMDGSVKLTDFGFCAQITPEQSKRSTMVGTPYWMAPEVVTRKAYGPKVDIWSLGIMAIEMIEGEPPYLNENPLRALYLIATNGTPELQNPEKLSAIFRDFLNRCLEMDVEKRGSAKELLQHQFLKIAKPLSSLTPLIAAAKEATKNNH

O=C(/C=C/c1ccc(O)c(O)c1)OCCc1ccccc1 [CAPE, caffeic acid phenethyl ester]
fold more potent (cell-permeable) than parent acid [1]: 10 fold

O=C(c1ccccc1)c1ccc2n1CCC2C(=O)O (racemic) [Ketorolac, 5-benzoyl-2,3-dihydro-1H-pyrrolizine-1-carboxylic acid, reference compound]
IC50 ([2]; Homo sapiens, A549, racemic mixture, our unpublished observation, read-out: IC50 against the growth of human cancer cells): 13000 nM | IC50 [2, 6]: 13000 nM

COc1ccccc1-n1cc(COC(=O)/C=C/c2ccc(O)c(O)c2)nn1 [PRC-15C]
IC50 [2, 7]: 225 nM | Potentiation of anti-cancer activity by esterization [2]: (>400 fold) | fold more potent than original acid, growth of A549 cells [2]: over 400 fold | anti-PAK1 activity in cell culture, inhibition (PAK1; at 1 μM): around 35% | IC50 (melanoma (B16F10) cells [3]): 225 nM | fold more cell-permeable than original acid (EMT6 breast cancer cells): at least 20 fold | fold more cell-permeable than original acid, probable upper estimate (EMT6 breast cancer cells; 'probably up to'): up to 70 fold

O=C(O)/C=C/c1ccc(O)c(O)c1 [CA, caffeic acid, reference compound]
IC50 [2, 6]: 100000 nM

CC(C)=CCc1cc(C=CC(=O)O)cc(CC=C(C)C)c1O [ARC, 3,5-diprenyl-4-hydroxycinnamic acid, reference compound]
IC50 [2, 6]: 25000 nM

COc1ccccc1-n1cc(COC(=O)C2CCn3c(C(=O)c4ccccc4)ccc32)nn1 (racemic) [PRC-15K]
IC50 ([2]; A549, 50/50 racemic mixture, growth of human cancer cells, read-out: IC50): ~24 nM | IC50 ([2]; Homo sapiens, A549, 96 hrs treatment, Trypan Blue exclusion, read-out: IC50 against the growth of A549 human lung cancer cells): 24 nM | IC50 ([2]; Homo sapiens, growth of A459 lung cancer cell line (so in the source), read-out: IC50 of Esters): 24 nM | Potentiation of anti-cancer activity by esterization [2]: (>500 fold) | fold more potent than original acid, growth of A549 cells [2]: over 500 fold | times potent as much as compound 7 ([2]; vs racemic ketorolac): more than 500 times | inhibition at 0.07 µM (PAK1; at 70 nM): ~50% | fold more potent than Ketorolac, anti-PAK1 activity in cell culture (PAK1; vs Ketorolac): over 30 fold | IC50 (melanoma (B16F10) cells [4]; Mus musculus, B16-F10, read-out: IC50 against the PAK1-independent growth of melanoma (B16F10) cells): 5 nM | fold more potent than Ketorolac, growth of B16F10 cells (melanoma (B16F10) cells [4]; vs Ketorolac): over 6000 fold | IC50 (recombinant human COX-2; in vitro, racemic form, read-out: IC50 against human COX-2): 6 nM | fold more potent than Ketorolac, anti-COX-2 (recombinant human COX-2; vs Ketorolac): over 20 fold | fold more cell-permeable than original acid (EMT6 breast cancer cells): at least 10 fold

COc1ccccc1-n1cc(COC(=O)/C=C/c2cc(CC=C(C)C)c(O)c(CC=C(C)C)c2)nn1 [PRC-15A]
IC50 [2, 7]: 250 nM | Potentiation of anti-cancer activity by esterization [2]: (100 fold) | fold more potent than original acid, growth of A549 cells [2]: 100 fold | anti-PAK1 activity in cell culture, inhibition (PAK1; at 1 mM): around 45% | ED for the growth of human hair (HFDP) cells ([5]; growth promotion): 20 nM | fold more potent than ARC, growth of HFDP cells ([5]; vs ARC): 1000 fold | IC50 (melanoma (B16F10) cells [3]): 250 nM | fold more cell-permeable than original acid (EMT6 breast cancer cells): at least 8 fold

— patent publication US10058618B2, “PAK1-blocking 1,2,3-triazolyl esters” (priority 2016, dated 2018)
